# Assays:
# CYP125 = CYP125 (Mycobacterium tuberculosis, UniProt P9WPP1); assay type: binding; conditions: fragment 1 mM, P450 4-6 µM; Soret shift relative to DMSO (393 nm)
# CYP142 = CYP142 (Mycobacterium tuberculosis, UniProt P9WPL5); conditions: fragment 1 mM, P450 4-6 µM; relative to DMSO (418.5 nm)
# CYP144 = CYP144 (Mycobacterium tuberculosis, UniProt P9WPL1); conditions: fragment 1 mM, P450 4-6 µM; relative to DMSO (421 nm)
# CYP124 = CYP124 (Mycobacterium tuberculosis, UniProt P9WPP3); conditions: fragment 1 mM, P450 4-6 µM; relative to DMSO (419 nm)
# CYP126 = CYP126 (Mycobacterium tuberculosis, UniProt P9WPN9); conditions: fragment 1 mM, P450 4-6 µM; relative to DMSO (418 nm)
# CYP143 = CYP143 (Mycobacterium tuberculosis, UniProt P9WPL3); conditions: fragment 1 mM, P450 4-6 µM; relative to DMSO (416 nm)
# CYP121 = CYP121 (Mycobacterium tuberculosis, UniProt P9WPP7); conditions: fragment 1 mM, P450 4-6 µM; relative to DMSO (417 nm)
# CYP121, sequence (P9WPP7 whole entry, the tested form may be a part): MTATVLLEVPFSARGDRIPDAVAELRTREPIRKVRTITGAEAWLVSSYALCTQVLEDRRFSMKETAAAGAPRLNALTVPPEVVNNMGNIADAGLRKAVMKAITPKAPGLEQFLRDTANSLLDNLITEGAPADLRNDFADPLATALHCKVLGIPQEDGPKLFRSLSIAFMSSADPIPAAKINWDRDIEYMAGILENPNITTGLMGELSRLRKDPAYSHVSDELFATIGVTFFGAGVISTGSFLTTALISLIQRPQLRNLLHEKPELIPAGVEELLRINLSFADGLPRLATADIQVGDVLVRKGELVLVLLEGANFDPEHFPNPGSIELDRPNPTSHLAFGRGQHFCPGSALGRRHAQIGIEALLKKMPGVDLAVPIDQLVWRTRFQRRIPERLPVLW
# CYP124, sequence (P9WPP3 whole entry, the tested form may be a part): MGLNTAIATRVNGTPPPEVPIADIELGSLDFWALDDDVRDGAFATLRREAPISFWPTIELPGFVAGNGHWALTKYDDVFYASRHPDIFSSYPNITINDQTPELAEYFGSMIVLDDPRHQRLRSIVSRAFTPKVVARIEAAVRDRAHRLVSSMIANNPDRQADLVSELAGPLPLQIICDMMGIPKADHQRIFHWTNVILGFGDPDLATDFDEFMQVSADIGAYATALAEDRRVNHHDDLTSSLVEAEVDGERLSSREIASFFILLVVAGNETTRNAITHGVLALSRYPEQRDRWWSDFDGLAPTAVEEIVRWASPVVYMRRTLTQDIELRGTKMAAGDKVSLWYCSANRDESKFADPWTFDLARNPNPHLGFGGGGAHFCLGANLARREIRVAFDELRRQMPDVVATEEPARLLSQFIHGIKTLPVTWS
# CYP143, sequence (P9WPL3 whole entry, the tested form may be a part): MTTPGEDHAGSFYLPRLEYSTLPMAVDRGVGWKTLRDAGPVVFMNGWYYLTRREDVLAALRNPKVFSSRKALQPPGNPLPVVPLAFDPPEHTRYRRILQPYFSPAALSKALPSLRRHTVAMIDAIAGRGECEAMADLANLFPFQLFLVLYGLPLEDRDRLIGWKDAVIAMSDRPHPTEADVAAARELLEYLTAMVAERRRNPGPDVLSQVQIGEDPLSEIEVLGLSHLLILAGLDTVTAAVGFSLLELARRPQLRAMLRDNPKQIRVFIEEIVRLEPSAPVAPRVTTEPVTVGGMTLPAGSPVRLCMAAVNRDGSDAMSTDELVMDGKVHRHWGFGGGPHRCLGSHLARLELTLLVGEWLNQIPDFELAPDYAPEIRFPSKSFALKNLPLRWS
# CYP142, sequence (P9WPL5 whole entry, the tested form may be a part): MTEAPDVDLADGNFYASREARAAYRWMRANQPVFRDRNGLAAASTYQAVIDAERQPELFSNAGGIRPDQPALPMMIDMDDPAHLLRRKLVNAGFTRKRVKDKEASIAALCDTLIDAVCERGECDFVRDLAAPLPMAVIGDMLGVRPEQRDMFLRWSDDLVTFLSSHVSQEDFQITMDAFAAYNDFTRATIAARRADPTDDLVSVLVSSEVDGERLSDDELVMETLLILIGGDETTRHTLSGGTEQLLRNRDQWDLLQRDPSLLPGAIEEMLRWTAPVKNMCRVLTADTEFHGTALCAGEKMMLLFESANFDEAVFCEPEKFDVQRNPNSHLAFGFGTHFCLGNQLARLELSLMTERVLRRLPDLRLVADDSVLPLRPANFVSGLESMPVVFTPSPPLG
# CYP144, sequence (P9WPL1 whole entry, the tested form may be a part): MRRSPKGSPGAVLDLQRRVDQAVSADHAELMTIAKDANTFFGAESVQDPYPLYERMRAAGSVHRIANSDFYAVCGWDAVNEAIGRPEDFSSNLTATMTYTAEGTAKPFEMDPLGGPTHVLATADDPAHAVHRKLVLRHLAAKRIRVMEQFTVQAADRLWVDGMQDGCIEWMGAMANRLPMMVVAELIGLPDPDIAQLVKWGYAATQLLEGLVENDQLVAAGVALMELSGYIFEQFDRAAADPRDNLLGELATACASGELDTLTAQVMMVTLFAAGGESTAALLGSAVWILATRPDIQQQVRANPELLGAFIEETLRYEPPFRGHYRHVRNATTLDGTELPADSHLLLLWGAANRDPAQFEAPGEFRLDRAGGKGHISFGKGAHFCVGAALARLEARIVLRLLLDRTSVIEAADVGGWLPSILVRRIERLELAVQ
# CYP125, sequence (P9WPP1 whole entry, the tested form may be a part): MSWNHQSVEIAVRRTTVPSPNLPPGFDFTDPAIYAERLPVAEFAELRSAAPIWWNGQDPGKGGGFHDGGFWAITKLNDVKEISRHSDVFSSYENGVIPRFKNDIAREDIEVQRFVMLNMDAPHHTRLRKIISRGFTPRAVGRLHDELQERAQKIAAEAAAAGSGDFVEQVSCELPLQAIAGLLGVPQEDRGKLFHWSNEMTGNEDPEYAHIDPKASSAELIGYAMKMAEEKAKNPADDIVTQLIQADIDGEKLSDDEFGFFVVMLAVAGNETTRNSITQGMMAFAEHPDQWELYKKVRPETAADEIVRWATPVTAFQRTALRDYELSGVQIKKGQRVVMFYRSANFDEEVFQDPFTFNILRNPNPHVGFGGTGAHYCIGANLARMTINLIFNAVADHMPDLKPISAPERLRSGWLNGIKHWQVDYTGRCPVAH
# CYP126, sequence (P9WPN9 whole entry, the tested form may be a part): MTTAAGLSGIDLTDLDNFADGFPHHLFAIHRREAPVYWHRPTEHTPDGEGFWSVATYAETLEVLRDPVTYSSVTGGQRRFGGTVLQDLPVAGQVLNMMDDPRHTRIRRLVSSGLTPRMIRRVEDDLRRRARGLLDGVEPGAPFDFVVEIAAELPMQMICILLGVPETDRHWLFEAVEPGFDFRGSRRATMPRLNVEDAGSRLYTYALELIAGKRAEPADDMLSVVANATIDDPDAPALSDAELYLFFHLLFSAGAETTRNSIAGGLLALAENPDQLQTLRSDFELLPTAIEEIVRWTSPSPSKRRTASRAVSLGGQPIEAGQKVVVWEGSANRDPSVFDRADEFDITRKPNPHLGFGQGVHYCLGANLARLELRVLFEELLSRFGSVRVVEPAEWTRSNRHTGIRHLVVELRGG
SMILES,"Δλmax (nm) CYP125, fragment screen (CYP125) [nm]","Δλmax (nm) CYP142, fragment screen (CYP142) [nm]","Δλmax (nm) CYP144, fragment screen (CYP144) [nm]","Δλmax (nm) CYP124, fragment screen (CYP124) [nm]","Δλmax (nm) CYP126, fragment screen (CYP126) [nm]","Δλmax (nm) CYP143, fragment screen (CYP143) [nm]","Δλmax (nm) CYP121, fragment screen (CYP121) [nm]"
NC1=NN(c2ccccc2)C(=O)C1 [compound 13],0,0,0,-1,0,0,0
Cc1[nH]ncc1-c1ccccc1 [compound 14],-2,1.5,0,3,0,0,0
Cc1cc(C)n(-c2ccc(N)cc2)n1 [compound 16],0,0,0,0,0,0.5,-1
Cc1nn(-c2ccccc2)nc1C(=O)O [compound 18],0,0,0,0,0,0,0
Clc1cncc(Cl)c1 [compound 19],0,0,0,0,0,0,0
c1ccc(Cc2cccnc2)cc1 [compound 20],28,3,0,1,1,2,2
CNCc1cccc(-c2ccccc2)c1 [compound 21],25,3,0,-1,1,4,0
O=C(O)c1ccccc1-n1cccn1 [compound 22],0,0,0,0,0,0,0
Nc1ccc(Br)cn1 [compound 23],0,0,0,0,0,0.5,-1
Cc1cc(O)nnc1O [compound 24],0,0,0,0,0,0,-1
COC(=O)c1ccnc(N)c1 [compound 25],0,0,0,0,0,0.5,0
COC(=O)c1cc2ccccc2cn1 [compound 26],0,0,0,0,0,1,0
Clc1ccc(Cl)nn1 [compound 27],0,0,0,0,0,0.5,0
Nc1cc(Cl)nc(Cl)c1 [compound 28],0,0,0,0,0,0,0
OCc1ccc(Br)cn1 [compound 29],0,0,0,0,0,0.5,0
O=C(O)c1cccc(O)n1 [compound 30],0,0,0,0,0,1,0
COc1ccc(C(C)=O)cn1 [compound 31],0,0,0,0,0,0.5,0
Cc1cc(C(=O)O)[nH]n1 [compound 32],0,0,0,0,0,-0.5,0
OB(O)c1ccccc1 [compound 33],0,0,0,0,0,4,0
O=C(O)CCc1nc2ccccc2[nH]1 [compound 34],0,0,0,0,0,0.5,0
c1ccc(-c2cc[nH]n2)cc1 [compound 35],-2,0,0,-1,0,1,0
O=C(O)CCc1ccccc1 [compound 36],0,0,0,0,2,1,0
Cc1n[nH]cc1Br [compound 38],0,1.5,0,0,0,0,0
c1ccc2c(c1)CCNC2 [compound 39],0,1.5,0,2,0,1,0
N#Cc1ccccn1 [compound 40],0,0,0,0,0,0.5,0
N#Cc1ccncc1 [compound 41],0,0,0,0,0,-0.5,0
Oc1cccnc1O [compound 42],0,0,0,-1,0,0.5,-1
Nc1ccccn1 [compound 43],0,0,0,0,0,1,0
